Source: ChEMBL document CHEMBL1152053, “Nonpeptide HIV protease inhibitors designed to replace a bound water” (Bioorg Med Chem Lett, 1993)

Biological target: Human immunodeficiency virus type 1 protease (Human immunodeficiency virus 1, UniProt Q72874)
Assay: Compound was evaluated for the inhibition of recombinant HIV-1 protease at 37 degrees C and pH of 6.

| SMILES | Ki [µM] |
| --- | --- |
| OC[C@]1(Cc2ccccc2)C[C@H](O)C[C@](CO)(Cc2ccccc2)[C@H]1O | 48 |
| OC[C@]1(Cc2ccccc2)C[C@H](O)C[C@](CO)(Cc2ccccc2)[C@@H]1O | 830 |
| OC1[C@@](O)(Cc2ccccc2)CCC[C@]1(O)Cc1ccccc1 | > 2000 |
| O=C1C[C@](O)(Cc2ccccc2)C(O)[C@@](O)(Cc2ccccc2)C1 | 10 |
| O[C@H]1C[C@H](Cc2ccccc2)[C@H](O)[C@@H](Cc2ccccc2)C1 | > 2000 |
| O=C1C[C@](CO)(Cc2ccccc2)C(O)[C@@](CO)(Cc2ccccc2)C1 | 62 |
| [O-][S+]1C[C@](CO)(Cc2ccccc2)C(O)[C@@](CO)(Cc2ccccc2)C1 (stereo in doubt; (+)7) | 7 |
| [O-][S+]1C[C@](CO)(Cc2ccccc2)C(O)[C@@](CO)(Cc2ccccc2)C1 (stereo in doubt; (-)7) | 19 |
